Consider 8 compounds from patent publication US20240417410A1, “TRICYCLIC COMPOUNDS FOR THE TREATMENT OF CANCER” (Hoffmann-La Roche Inc., priority 2023, published 2024).

In one test the target is KRAS G12C-BRAF complex (Homo sapiens (Human), UniProt P01116+P62937, G12C). In words: KRAS-BRAF with CYPA (500 nM) interaction assay (TR-FRET, Example 136). The format is biochemical. The settings on record: KRAS G12C-BRAF disruption. In general terms: In TR-FRET formats the signal depends on donor and acceptor labels being close together.
Chain of KRAS G12C-BRAF complex (P01116-2 other isoform, or with tags, fused parts or gaps G12C): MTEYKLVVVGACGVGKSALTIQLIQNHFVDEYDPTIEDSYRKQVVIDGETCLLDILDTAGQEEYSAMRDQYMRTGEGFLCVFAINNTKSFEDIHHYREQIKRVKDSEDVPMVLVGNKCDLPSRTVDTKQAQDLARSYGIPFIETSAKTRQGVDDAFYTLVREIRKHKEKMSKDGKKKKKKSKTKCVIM
Chain of KRAS G12C-BRAF complex (P62937 whole entry): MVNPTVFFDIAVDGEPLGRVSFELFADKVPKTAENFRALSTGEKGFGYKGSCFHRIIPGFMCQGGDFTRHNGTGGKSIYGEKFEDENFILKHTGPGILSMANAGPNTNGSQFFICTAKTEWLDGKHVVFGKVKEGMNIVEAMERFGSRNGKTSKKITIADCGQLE
For test [1], the system named is NCI-H358 cells (KRAS G12C). In words: Cell viability assay (Cell Counting Kit-8, 3-day). The format is cell-based, human. The settings on record: Homo sapiens, NCI-H358, 72 h, NCI-H358, 72 hrs incubation. In short, it runs like this:
(§1)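 Seed NCI-H358 5,000/well, AGS and SW620 2,000/well; overnight. Compound, 0.5% DMSO final, 72 hrs. CCK-8 2 hrs, OD450–OD650. IC50: 4-parameter fit.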
On the technique in general: Tetrazolium dyes change colour on reduction, which living cells bring about.

A further test relates to AGS cells (KRAS G12D). In words: Cell viability assay (Cell Counting Kit-8, 3-day). It is filed as cell-based, human. The settings on record: Homo sapiens, 72 h, 72 hrs incubation. Put shortly: as §1
The subject of the next test is SW620 cells (KRAS G12V). In words: Cell viability assay (Cell Counting Kit-8, 3-day). The format is cell-based, human. To be noted: Homo sapiens, SW-620; SW620, 72 hrs incubation. In short, it runs like this:
as §1

Test [2] concerns phosphorylation of ERK, KRAS G12V in SW620. In words: pERK inhibition assay. The format is cell-based. The settings on record: Homo sapiens, SW-620, 4 h, SW620 cells. Put shortly:
(§2)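 Cells in RPMI-1640 with 10% FBS were plated overnight (30,000/well H358, 20,000 AGS, 30,000 SW620) and treated 4 h with compounds at 0.5% DMSO. After formaldehyde fixation and methanol permeabilization, pERK was detected by in-cell ELISA with HRP secondary and TMB (OD450); IC50 from 4-parameter fit.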

The subject of test [3] is phosphorylation of ERK, KRAS G12D in AGS cells. In words: pERK inhibition assay. The format is cell-based. The settings on record: Homo sapiens, AGS, 4 h. In short, it runs like this: as §2
Test [4] deals with phosphorylation of ERK, KRAS G12C in NCI-H358 cells. In words: pERK inhibition assay. To be noted: Homo sapiens, NCI-H358, 4 h. It is filed as cell-based. In short, it runs like this:
as §2

One may read the IC50 as the point on the concentration scale where inhibition reaches its midpoint. Higher therefore signals weaker potency. Take `CO[C@@H](C)c1ncc(N2CCN(CCCO)CC2)cc1-c1c2c3cc(cc4c3n1CCC4)-c1csc(n1)C[C@H](NC(=O)[C@H]1[C@H](C)[C@@H]1C)C(=O)N1CCC[C@H](N1)C(=O)OCC(C)(C)C2` (atropisomer, axis not shown; (M)) [Example 111, (1r,2R,3S)-N-[(7S,13S)-(20M)-20-[5-[4-(3-hydroxypropyl)piperazin-1-yl]-2-[(1S)-1-methoxyethyl]-3-pyridyl]-17,17-dimethyl-8,14-dioxo-15-oxa-4-thia-9,21,30,31-tetrazahexacyclo[23.3.1.1^2,5.1^9,13.0^19,27.0^21,26]hentriaconta-1 (28),2,5 (31), 19,25 (29),26-hexaen-7-yl]-2,3-dimethyl-cyclopropanecarboxamide]: the IC50 at KRAS G12C-BRAF complex is 4.7 nM; in test [1] it was 1 nM; with AGS cells (KRAS G12D), 0.8 nM; in the test on SW620 cells (KRAS G12V), 0.2 nM; in test [2], 0.4 nM; in test [3], 2 nM. In addition, in test [4], the IC50 amounted to 0.6 nM.

Consider `CO[C@@H](C)c1ncc(N2CCN(C)CC2)cc1-c1c2c3cc(cc4c3n1CCC4)-c1csc(n1)C[C@H](NC(=O)[C@H]1C[C@@H]1C)C(=O)N1CCC[C@H](N1)C(=O)OCC(C)(C)C2` (atropisomer, axis not shown; (M)) [Example 2, (1S,2S)-N-[(7S,13S)-(20M)-20-[2-[(1S)-1-methoxyethyl]-5-(4-methylpiperazin-1-yl)-3-pyridyl]-17,17-dimethyl-8,14-dioxo-15-oxa-4-thia-9,21,30,31-tetrazahexacyclo[23.3.1.1^2,5.1^9,13.0^19,27.0^21,26]hentriaconta-1 (28),2,5 (31), 19,25 (29),26-hexaen-7-yl]-2-methyl-cyclopropanecarboxamide], for which the IC50 on KRAS G12C-BRAF complex was 28.8 nM; in test [1], 10.1 nM; in the test with AGS cells (KRAS G12D), 29.9 nM; with SW620 cells (KRAS G12V), 1.2 nM; in test [2], 1.4 nM; in test [3] it was 3 nM. The IC50 in test [4] was 3.4 nM.

As for `CO[C@@H](C)c1ncc(N2CCN3CCCC[C@@H]3C2)cc1-c1c2c3cc(cc4c3n1CCC4)-c1csc(n1)C[C@H](NC(=O)[C@H]1[C@H](C)[C@@H]1C)C(=O)N1CCC[C@H](N1)C(=O)OCC(C)(C)C2` (atropisomer, axis not shown; (M)) [Example 101, (1r,2S,3R)-N-[(7S,13S)-(20M)-20-[5-[(9αR)-1,3,4,6,7,8,9,9a-octahydropyrido[1,2-a]pyrazin-2-yl]-2-[(1S)-1-methoxyethyl]-3-pyridyl]-17,17-dimethyl-8,14-dioxo-15-oxa-4-thia-9,21,30,31-tetrazahexacyclo[23.3.1.1^2,5.1^9,13.0^19,27.0^21,26]hentriaconta-1 (28),2,5 (31),19,25 (29),26-hexaen-7-yl]-2,3-dimethyl-cyclopropanecarboxamide], the IC50 on KRAS G12C-BRAF complex is 5.4 nM; in test [1], 1.8 nM; in the test on AGS cells (KRAS G12D) it was 6.9 nM; with SW620 cells (KRAS G12V), 0.3 nM; in test [2], 0.2 nM; in test [3], 2.6 nM. The IC50 in test [4] is 0.9 nM.

Turning to `CO[C@@H](C)c1ncc(N2CCN(C3COC3)CC2)cc1-c1c2c3cc(cc4c3n1CCC4)-c1csc(n1)C[C@H](NC(=O)[C@H]1[C@H](C)[C@@H]1C)C(=O)N1CCC[C@H](N1)C(=O)OCC(C)(C)C2` (atropisomer, axis not shown; (M)) [Example 118, (1r,2R,3S)-N-[(7S,13S)-(20M)-20-[2-[(1S)-1-methoxyethyl]-5-[4-(oxetan-3-yl)piperazin-1-yl]-3-pyridyl]-17,17-dimethyl-8,14-dioxo-15-oxa-4-thia-9,21,30,31-tetrazahexacyclo[23.3.1.1^2,5.1^9,13.0^19,27.0^21,26]hentriaconta-1 (28),2,5 (31), 19,25 (29),26-hexaen-7-yl]-2,3-dimethyl-cyclopropanecarboxamide], the IC50 at KRAS G12C-BRAF complex is 13.5 nM; in test [1], 1.1 nM; with AGS cells (KRAS G12D) it was 1.3 nM; with SW620 cells (KRAS G12V) it was 0.2 nM; in test [2], 0.3 nM; in test [3] it was 3.5 nM. The compound also returned an IC50 in test [4] of 0.7 nM.

In the case of `CO[C@@H](C)c1ncc(N2CCN3CCCC[C@@H]3C2)cc1-c1c2c3cc(cc4c3n1CCC4)-c1csc(n1)C[C@H](NC(=O)[C@H]1C[C@@H]1c1cccnc1)C(=O)N1CCC[C@H](N1)C(=O)OCC(C)(C)C2` (atropisomer, axis not shown; (M)) [Example 102, (1S,2S)-N-[(7S,13S)-(20M)-20-[5-[(9αR)-1,3,4,6,7,8,9,9a-octahydropyrido[1,2-a]pyrazin-2-yl]-2-[(1S)-1-methoxyethyl]-3-pyridyl]-17,17-dimethyl-8,14-dioxo-15-oxa-4-thia-9,21,30,31-tetrazahexacyclo[23.3.1.1^2,5.1^9,13.0^19,27.0^21,26]hentriaconta-1 (28),2,5 (31),19,25 (29),26-hexaen-7-yl]-2-(3-pyridyl)cyclopropanecarboxamide], the IC50 was 6.5 nM against KRAS G12C-BRAF complex; 1.2 nM in test [1]; 4.9 nM in the test on AGS cells (KRAS G12D); 0.4 nM in the test on SW620 cells (KRAS G12V); 0.7 nM in test [2]; 2 nM in test [3]. Further, the IC50 in test [4] came to 1.1 nM.

Consider `CO[C@@H](C)c1ncc(N2CCN3CCCC[C@@H]3C2)cc1-c1c2c3cc(cc4c3n1CCC4)-c1csc(n1)C[C@H](NC(=O)[C@H]1C[C@@H]1C)C(=O)N1CCC[C@H](N1)C(=O)OCC(C)(C)C2` (atropisomer, axis not shown; (M)) [Example 49, (1S,2S)-N-[(7S,13S)-(20M)-20-[5-[(9αR)-1,3,4,6,7,8,9,9a-octahydropyrido[1,2-a]pyrazin-2-yl]-2-[(1S)-1-methoxyethyl]-3-pyridyl]-17,17-dimethyl-8,14-dioxo-15-oxa-4-thia-9,21,30,31-tetrazahexacyclo[23.3.1.1^2,5.1^9,13.0^19,27.0^21,26]hentriaconta-1 (28),2,5 (31), 19,25 (29),26-hexaen-7-yl]-2-methyl-cyclopropanecarboxamide], for which the IC50 came out at 17.5 nM against KRAS G12C-BRAF complex; 9.7 nM in test [1]; 29.1 nM in the test with AGS cells (KRAS G12D); 1.7 nM in the test with SW620 cells (KRAS G12V); 1.3 nM in test [2]; 13.7 nM in test [3]. In addition, the IC50 in test [4] was determined as 2.4 nM.

In the case of `CO[C@@H](C)c1ncc(N2CCN(CC(F)(F)F)CC2)cc1-c1c2c3cc(cc4c3n1CC(F)(F)C4)-c1csc(n1)C[C@H](NC(=O)[C@H]1[C@H](C)[C@@H]1C)C(=O)N1CCC[C@H](N1)C(=O)OCC(C)(C)C2` (atropisomer, axis not shown; (M)) [Example 87, (1r,2S,3R)-N-[(7S,13S)-23,23-difluoro-(20M)-20-[2-[(1S)-1-methoxyethyl]-5-[4-(2,2,2-trifluoroethyl)piperazin-1-yl]-3-pyridyl]-17,17-dimethyl-8,14-dioxo-15-oxa-4-thia-9,21,30,31-tetrazahexacyclo[23.3.1.1^2,5.1^9,13.0^19,27.0^21,26]hentriaconta-1 (28),2,5 (31),19,25 (29),26-hexaen-7-yl]-2,3-dimethyl-cyclopropanecarboxamide], the IC50 on KRAS G12C-BRAF complex is 32.6 nM; in test [1], 30 nM; with AGS cells (KRAS G12D), 58 nM; in the test with SW620 cells (KRAS G12V), 4 nM; in test [2] it was 1.5 nM; in test [3] it was 40.6 nM. The compound also had an IC50 in test [4] of 4.8 nM.

Turning to `CO[C@@H](C)c1ncc(N2CCN(CC(F)(F)F)CC2)cc1-c1c2c3cc(cc4c3n1CCO4)-c1csc(n1)C[C@H](NC(=O)[C@H]1[C@H](C)[C@@H]1C)C(=O)N1CCC[C@H](N1)C(=O)OCC(C)(C)C2` (atropisomer, axis not shown; (M)) [Example 85, (1r,2S,3R)-N-[(7S,13S)-(20M)-20-[2-[(1S)-1-methoxyethyl]-5-[4-(2,2,2-trifluoroethyl)piperazin-1-yl]-3-pyridyl]-17,17-dimethyl-8,14-dioxo-15,24-dioxa-4-thia-9,21,30,31-tetrazahexacyclo[23.3.1.1^2,5.1^9,13.0^19,27.0^21,26]hentriaconta-1 (28),2,5 (31),19,25 (29),26-hexaen-7-yl]-2,3-dimethyl-cyclopropanecarboxamide], the IC50 was 18.8 nM against KRAS G12C-BRAF complex; 9 nM in test [1]; 13 nM with AGS cells (KRAS G12D); 1 nM in the test with SW620 cells (KRAS G12V); 0.6 nM in test [2]; 5.6 nM in test [3]. Moreover, the IC50 in test [4] stood at 1.7 nM.
